Columns and labels:
[1] = Plasma concentration in rats after subcutaneous administration (HPLC); settings: rat
Procedure: (§1) For the pharmacokinetic characterization, the plasma concentration of selected derivatives was determined in rats after intravenous (i.v.), subcutaneous (s.c.) and peroral (p.o.) application according to the following three-step procedure:
(§2) 1. A physiological NaCl solution of the substance to be tested was submitted to high pressure liquid chromatography (HPLC) in order to determine its characteristic substance-specific retention time with the chosen test conditions.
(§3) 2. The substance to be tested was diluted in vitro in rat plasma. This solution was also submitted to HPLC to see whether the characteristic peak of the substance once again appeared at the substance-specific retention time.
(§4) 3. […] Blood samples were taken at time intervals of 15 minutes, from which plasma samples were prepared by centrifugation; those samples were also submitted to HPLC to see whether the characteristic peak of the substance appeared again at the substance-specific retention time.

[2] = Plasma concentration in rats after intravenous administration (HPLC); settings: for Concentration in plasma: i.v. 1 mg/kg
plasma kallikrein = biological target: T1, plasma kallikrein (Homo sapiens, UniProt P03952); assay: Inhibition of plasma kallikrein (Ki); format: biochemical; settings: Table 26
T1 construct: glandular kallikrein, factor XIIa and plasma kallikrein

glandular kallikrein = glandular kallikrein (Sus scrofa, UniProt P00752); assay: Inhibition of glandular kallikrein (Ki); format: biochemical; settings: Table 26; read-out: Ki, Gland. Kallikrein
tPA = tPA (Homo sapiens, UniProt P00750); assay: Inhibition of tPA (Ki); format: biochemical; settings: Table 26
in vivo = settings: mouse
plasmin = biological target: T2, plasmin (Homo sapiens, UniProt P00747); assay: Inhibition of plasmin (Ki); format: biochemical; settings: Table 26
T2 construct: trypsin and the related enzymes thrombin, plasmin, factor Xa, tPA

thrombin = thrombin (Bos taurus, UniProt P00735); assay: Inhibition of thrombin (dissociation constant Ki); format: biochemical
[3] = Plasma concentration in rats after oral administration (HPLC); settings: rat, plasma, po, 100 mg/kg
Procedure: as §1, §2, §3, §4

factor XIIa = biological target: T3, factor XIIa (Homo sapiens, UniProt P00748); assay: Inhibition of factor XIIa (Ki); format: biochemical; settings: Table 26
T3 construct: glandular kallikrein, factor XIIa and plasma kallikrein
T3 sequence (P00748 373-615 limits assumed): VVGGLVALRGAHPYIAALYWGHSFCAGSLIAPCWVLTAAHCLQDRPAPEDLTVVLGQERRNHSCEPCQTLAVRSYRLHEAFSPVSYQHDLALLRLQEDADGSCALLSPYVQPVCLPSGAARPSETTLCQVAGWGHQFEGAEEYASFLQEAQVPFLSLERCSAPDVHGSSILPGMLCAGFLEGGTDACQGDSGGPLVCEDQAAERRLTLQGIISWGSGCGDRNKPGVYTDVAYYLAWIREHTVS

factor Xa = factor Xa (Bos taurus, UniProt P00743); assay: Inhibition of factor Xa (dissociation constant Ki); format: biochemical; settings: Tables 19-25; read-out: Ki, Factor Xa
Sequence of factor Xa (P00743 234-492 limits assumed): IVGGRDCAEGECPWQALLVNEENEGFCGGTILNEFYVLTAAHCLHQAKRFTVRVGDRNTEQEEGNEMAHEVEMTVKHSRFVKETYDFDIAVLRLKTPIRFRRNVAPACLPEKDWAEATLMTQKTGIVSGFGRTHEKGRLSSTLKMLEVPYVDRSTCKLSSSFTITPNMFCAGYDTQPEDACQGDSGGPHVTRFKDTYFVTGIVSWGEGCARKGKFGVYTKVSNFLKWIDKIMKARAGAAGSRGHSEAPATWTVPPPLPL
Sequence of factor Xa (P00743 41-180 partner limits assumed): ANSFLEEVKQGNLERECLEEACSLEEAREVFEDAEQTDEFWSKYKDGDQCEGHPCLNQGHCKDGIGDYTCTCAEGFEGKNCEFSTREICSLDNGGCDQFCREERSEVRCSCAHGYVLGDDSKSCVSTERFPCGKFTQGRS

T1 sequence (P03952 391-638 limits assumed, species assumed): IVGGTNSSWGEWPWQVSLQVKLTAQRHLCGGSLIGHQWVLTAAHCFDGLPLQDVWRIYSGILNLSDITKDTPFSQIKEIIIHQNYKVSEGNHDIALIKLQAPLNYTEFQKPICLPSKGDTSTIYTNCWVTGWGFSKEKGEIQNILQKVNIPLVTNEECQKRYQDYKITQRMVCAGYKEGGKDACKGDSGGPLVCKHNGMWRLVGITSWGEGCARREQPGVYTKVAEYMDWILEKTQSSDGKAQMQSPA
T1 sequence (P03952 20-390 partner limits assumed, species assumed): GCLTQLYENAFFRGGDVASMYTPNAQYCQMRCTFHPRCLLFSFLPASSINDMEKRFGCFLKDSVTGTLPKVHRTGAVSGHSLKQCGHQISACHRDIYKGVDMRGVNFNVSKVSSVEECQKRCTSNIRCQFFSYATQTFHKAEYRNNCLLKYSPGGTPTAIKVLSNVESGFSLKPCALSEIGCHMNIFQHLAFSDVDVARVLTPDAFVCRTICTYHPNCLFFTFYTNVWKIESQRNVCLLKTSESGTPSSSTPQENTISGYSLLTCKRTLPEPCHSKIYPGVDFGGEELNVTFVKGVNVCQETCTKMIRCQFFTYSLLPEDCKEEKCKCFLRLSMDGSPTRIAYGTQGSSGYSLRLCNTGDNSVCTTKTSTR
T2 sequence (P00747 581-810 limits assumed): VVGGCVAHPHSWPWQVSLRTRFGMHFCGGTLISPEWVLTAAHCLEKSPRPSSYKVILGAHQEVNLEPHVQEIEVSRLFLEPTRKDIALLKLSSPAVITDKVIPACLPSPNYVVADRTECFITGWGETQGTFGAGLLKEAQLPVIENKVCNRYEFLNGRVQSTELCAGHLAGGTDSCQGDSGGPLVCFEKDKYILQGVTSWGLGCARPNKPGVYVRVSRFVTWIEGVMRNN
T2 sequence (P00747 97-580 partner limits assumed): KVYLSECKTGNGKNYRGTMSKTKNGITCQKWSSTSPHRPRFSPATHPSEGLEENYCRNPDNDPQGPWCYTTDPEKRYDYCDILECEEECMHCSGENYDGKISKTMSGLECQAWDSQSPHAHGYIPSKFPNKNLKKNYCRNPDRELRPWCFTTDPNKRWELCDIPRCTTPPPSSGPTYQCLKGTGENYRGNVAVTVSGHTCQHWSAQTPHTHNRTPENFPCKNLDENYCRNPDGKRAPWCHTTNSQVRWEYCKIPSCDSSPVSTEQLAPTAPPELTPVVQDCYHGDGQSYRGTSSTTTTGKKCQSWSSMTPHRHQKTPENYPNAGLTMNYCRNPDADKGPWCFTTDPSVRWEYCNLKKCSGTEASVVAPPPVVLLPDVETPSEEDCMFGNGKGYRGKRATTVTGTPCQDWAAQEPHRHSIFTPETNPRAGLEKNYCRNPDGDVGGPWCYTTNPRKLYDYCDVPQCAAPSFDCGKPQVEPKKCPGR
Sequence of tPA (P00750 36-562): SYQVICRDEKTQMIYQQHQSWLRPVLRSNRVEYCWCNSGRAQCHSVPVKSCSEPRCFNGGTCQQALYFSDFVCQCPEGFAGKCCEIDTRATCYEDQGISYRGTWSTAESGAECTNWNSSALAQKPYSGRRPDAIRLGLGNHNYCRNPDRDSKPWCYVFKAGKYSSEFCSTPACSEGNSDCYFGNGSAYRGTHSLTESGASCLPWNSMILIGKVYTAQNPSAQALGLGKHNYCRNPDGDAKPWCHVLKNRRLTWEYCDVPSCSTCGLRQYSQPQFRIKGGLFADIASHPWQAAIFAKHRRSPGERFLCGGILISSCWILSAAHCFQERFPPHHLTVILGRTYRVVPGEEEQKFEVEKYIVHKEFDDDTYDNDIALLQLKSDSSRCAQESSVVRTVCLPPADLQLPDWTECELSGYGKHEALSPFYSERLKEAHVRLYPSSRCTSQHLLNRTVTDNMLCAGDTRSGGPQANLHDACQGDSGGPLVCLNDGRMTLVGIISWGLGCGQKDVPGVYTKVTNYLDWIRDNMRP
Sequence of glandular kallikrein (P00752 8-246): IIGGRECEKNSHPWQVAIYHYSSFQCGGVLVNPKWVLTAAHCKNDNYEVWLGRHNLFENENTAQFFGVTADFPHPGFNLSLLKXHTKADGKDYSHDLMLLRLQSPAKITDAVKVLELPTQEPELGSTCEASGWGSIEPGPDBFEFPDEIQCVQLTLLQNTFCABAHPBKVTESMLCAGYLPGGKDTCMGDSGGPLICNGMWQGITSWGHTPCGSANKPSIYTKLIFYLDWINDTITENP

SMILES	concentration at 0.5 h ([1]; plasma, sc, 5 mg/kg)	concentration at 0.75 h ([1]; plasma, sc, 5 mg/kg)	concentration at 1 h ([1]; plasma, sc, 5 mg/kg)	concentration at 1.5 h ([1]; plasma, sc, 5 mg/kg)	concentration at 2 h ([1]; plasma, sc, 5 mg/kg)	concentration at 3 h ([1]; plasma, sc, 5 mg/kg)	concentration at 4 h ([1]; plasma, sc, 5 mg/kg)	concentration at 2 min ([2]; rat, plasma, iv, 1 mg/kg)	concentration at 5 min ([2]; rat, plasma, iv, 1 mg/kg)	concentration at 10 min ([2]; rat, plasma, iv, 1 mg/kg)	concentration at 0.25 h ([2]; rat, plasma, iv, 1 mg/kg)	concentration at 0.5 h ([2]; rat, plasma, iv, 1 mg/kg)	concentration at 0.75 h ([2]; rat, plasma, iv, 1 mg/kg)	concentration at 1 h ([2]; rat, plasma, iv, 1 mg/kg)	Ki (plasma kallikrein)	Ki (glandular kallikrein)	Ki (tPA)	LD50 at 168 h (in vivo; iv)	LD50 at 168 h (in vivo; po)	Ki (plasmin)	other results
N=C(N)c1cccc(CC(NS(=O)(=O)c2ccc3ccccc3c2)C(=O)N2CCCCC2C(=O)O)c1 (racemic) [Compound 83]	620 ng/mL	626 ng/mL	568 ng/mL	467 ng/mL	415 ng/mL	314 ng/mL	297 ng/mL	1900 ng/mL	928 ng/mL	496 ng/mL	243 ng/mL	150 ng/mL	115 ng/mL	85 ng/mL	32 µM	~1000 µM	205 µM	272 mg/kg	> 3000 mg/kg	34 µM	concentration at 0.25 h ([1]; plasma, sc, 5 mg/kg): 402 ng/mL; pharmacokinetic properties ([2]; in words, compared with NAPAP): improved pharmacokinetic properties; Concentration in plasma ([2]; rat, 120 min): 0 ng/mL; Concentration in plasma ([2]; rat, 180 min): 0 ng/mL; concentration at 1.5 h ([2]; rat, plasma, iv, 1 mg/kg): 45 ng/mL; Ki (thrombin): 0.26 µM; concentration at 0.25 h [3]: 133 ng/mL; concentration at 0.5 h [3]: 79 ng/mL; concentration at 1 h [3]: 50 ng/mL; concentration at 1.5 h [3]: 37 ng/mL; concentration at 2 h [3]: 38 ng/mL; concentration at 3 h [3]: 25 ng/mL; concentration at 4 h [3]: 23 ng/mL; Ki (factor XIIa): > 1000 µM; Ki (factor Xa): 38 µM
N=C(N)c1cccc(CC(NS(=O)(=O)c2ccc3ccccc3c2)C(=O)N2Cc3ccccc3CC2C(=O)O)c1 (racemic) [Compound 134, N-α-(2-Naphtylsulfonyl)-3-amidino-(D,L)-phenylalanyl-1,2,3,4-tetrahydroisoquinoline-3-carboxylic acid]	35 ng/mL	72 ng/mL	79 ng/mL	92 ng/mL	145 ng/mL	285 ng/mL	268 ng/mL	4440 ng/mL	1680 ng/mL	775 ng/mL	621 ng/mL	79 ng/mL	78 ng/mL	10 ng/mL	1.5 µM	390 µM	> 1000 µM	29 mg/kg	> 3000 mg/kg	0.67 µM	concentration at 5 h ([1]; plasma, sc, 5 mg/kg): 248 ng/mL; Concentration in plasma ([1]; s.c. 5 mg/kg, 15 min): 0 ng/mL; Concentration in plasma ([2]; rat, 90 min): 0 ng/mL; Ki (thrombin): 0.018 µM; concentration at 0.25 h [3]: 188 ng/mL; concentration at 0.5 h [3]: 260 ng/mL; concentration at 0.75 h [3]: 297 ng/mL; concentration at 1 h [3]: 260 ng/mL; concentration at 2 h [3]: 234 ng/mL; concentration at 3 h [3]: 236 ng/mL; concentration at 4 h [3]: 210 ng/mL; concentration at 5 h [3]: 157 ng/mL; concentration at 6 h [3]: 86 ng/mL; Ki (factor XIIa): > 1000 µM; Ki (factor Xa): 42 µM

Source: US5518735A, “Meta-substituted phenylalanine derivatives” (priority 1990, dated 1996)
